{"source": "patent EP4585599A1", "about": "“NITROGEN-CONTAINING FUSED RING COMPOUND, INTERMEDIATE THEREOF, PREPARATION METHOD THEREFOR AND USE THEREOF” (Hangzhou Synrx Therapeutics Biomedical Technology Co., Ltd., priority 2022, dated 2024)", "key": {"[1]": {"target": "T1, helicase domain of the Pol θ protein (Homo sapiens, UniProt O75417)", "T1 construct": "The helicase domain of the Pol θ protein was purified from insect protein expression system; made in house; host or cells: insect protein expression system", "T1 sequence (O75417 102-554 limits assumed)": "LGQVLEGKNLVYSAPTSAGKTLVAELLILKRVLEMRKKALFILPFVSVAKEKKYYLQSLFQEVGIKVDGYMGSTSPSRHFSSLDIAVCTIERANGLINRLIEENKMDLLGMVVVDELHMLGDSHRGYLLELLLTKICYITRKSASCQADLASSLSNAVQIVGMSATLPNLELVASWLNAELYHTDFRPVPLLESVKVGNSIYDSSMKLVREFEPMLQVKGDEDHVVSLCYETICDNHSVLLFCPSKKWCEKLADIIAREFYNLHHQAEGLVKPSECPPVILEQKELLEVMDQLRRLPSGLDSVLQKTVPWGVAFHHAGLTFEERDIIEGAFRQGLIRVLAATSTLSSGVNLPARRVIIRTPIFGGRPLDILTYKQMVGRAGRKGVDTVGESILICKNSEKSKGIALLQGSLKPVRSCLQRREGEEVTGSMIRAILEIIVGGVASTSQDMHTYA", "test": "Biochemical Activity Assay (ADP Glo Assay) of Pol θ inhibitor, ATPase activity", "conditions": "read-out: Biochemical assay IC50; ADP-Glo assay, ATPase activity of Pol θ helicase domain, ssDNA substrate"}, "cells": {"test": "cells", "conditions": "Homo sapiens, DLD-1, 240 h, read-out: Cell viability assay IC50 (nM)"}, "Solubility assay": {"test": "Solubility assay", "conditions": "0.1 m sodium phosphate buffer, pH 7.4, aqueous buffer, kinetic from dmso stock", "description": "1) Prepare 0.1 M Na2PO4 buffer (pH 7.4): 11 g of Na2HPO4 (FW: 141.96) and 3.5 g of NaH2PO4_2H2O (FW: 156.03) were added to 1L of Mili-Q water, with pH adjusted to 7.4 using phosphoric acid or sodium hydroxide. 2) 10 µL of the compound to be tested (concentration: 10 mM in DMSO) was added to 990 µL of Na2PO4 buffer (final DMSO concentration: 1%) prepared in Step 1). 3) The sample tube was shaken at room temperature for 2 hours (1000 rpm/min). 4) Prepare the calibration curve: a) Prepare 300 µM spiking solution (SS): 6 µL (10 mM in DMSO) of the stock solution of the compound to be tested was added to 194 µL of MeOH/ACN (4:1); and b) Draw the standard curve.\n5) The samples were centrifuged (10 min, 12,000 rpm) to precipitate insoluble particles. The supernatant was filtered with a 0.22 µm filter membrane, and then transferred to a new centrifuge tube. 6) The supernatant was diluted 10-fold with 100 mM buffer. The supernatant (10 µL) was added to the buffer (100 mM, 90 µL) and diluted 10-fold. 7) The sample was prepared under LC-MS/MS (API 4000) detection.\n10 µL of the sample (10-fold dilution) and a standard curve sample were added to 400 µL of (MeOH: ACN=1:1) solution, and detected on the instrument, and the solubility value was calculated according to the standard curve."}, "[2]": {"test": "Mouse PK assay after oral administration", "description": "The objective of this experiment was to study the pharmacokinetics of the test compound in ICR mice (male, 18-22 g, 4-6 weeks old, Beijing Vital River Laboratory Animal Technology Co., Ltd.) after oral administration. The specific experimental procedures were as follows: • 1) The compound was dissolved in 5% DMSO + 40% PEG + 20% (10% TPGS) in water + 35% water at a concentration of 0.5 mg/mL, and then administered orally (5 mL/Kg); and • 2) Blood samples were collected, with 0.03 mL collected at 0.25 h, 0.5 h, 1 h, 2 h, 4 h, 8 h, and 24 h, and EDTA-K2 was added. […] The blood was centrifuged for 5 min at 4000 g in a centrifuge at 4°C to collect plasma. Plasma samples were aliquoted into clean polyethylene microcentrifuge tubes and then stored in a freezer at -75 ± 15°C before analysis; and • 3) Samples were analyzed, and the concentration of the compound in each plasma sample was analyzed by LC-MS/MS. For plasma measurements, pharmacokinetic parameters were calculated using WinNonlin (PhoenixTM, version 8.3) or other similar software."}, "[3]": {"test": "Metabolic stability of mouse liver microsome assay", "conditions": "liver microsomes, pH 7.4", "description": "a) Phosphate buffer solution (PBS): 100 mM, pH=7.4±0.1.\n73.21 g of dipotassium phosphate trihydrate K2HPO4·3H2O (MW=228.22) and 10.78 g of potassium dihydrogen phosphate KH2PO4 (MW=136.09) were dissolved in 4000 mL of pure water, with pH adjusted to 7.4 ± 0.1 using phosphoric acid or potassium hydroxide.\nb) Microsome working solution: 1.0 mg/mL.\nThe purchased mouse liver microsomes (IPHASE, Cat. No.: 0121E1.01, Lot. No.: 22F001) were of 20 mg/mL (10 mg, 0.5 mL), with 225 µL added to 4275 µL of PBS solution to prepare 1.0 mg/mL microsome working solution.\n(Note whether the precipitation occurred) • III, 200 µL of the 40 mM NADPH stock solution, 2.0 mL of the 12 mM magnesium chloride stock solution, and 1.80 mL of the PBS solution were used to prepare the working solution of the NADPH regeneration system, containing the 2 mM NADPH solution and the 6 mM magnesium chloride mixture.\nd) Stop solution: containing 200 ng/mL tolbutamide acetonitrile solution. • I, 6.006 mg of tolbutamide (MV=270.35, 99.9%) solids were weighed, and 30 mL of acetonitrile was added to prepare the 200 µg/mL of tolbutamide stock solution. • II, 500 mL of acetonitrile was added to 500 µL of the 200 µg/mL tolbutamide stock solution to obtain the tolbutamide acetonitrile solution with a concentration of 200 ng/mL.\ne) Test sample/reference working solution: 100 µM test sample/reference working solution • I, 1 mL of 1.0 mg/mL testosterone (MV=288.42) solution was purchased, and 155.8 µL of ACN was added to prepare a testosterone stock solution with a concentration of 3 mM. • II, 1450 µL of acetonitrile was added to 50 µL of the 3 mM testosterone stock solution to prepare the 100 µM testosterone working solution. • III, 6.98 mg of propafenone hydrochloride was weighed, and 1.8433 mL of acetonitrile was added to dissolve the propafenone hydrochloride; and 5.67 mg of diclofenac sodium was weighed, and 1.783 mL of acetonitrile was added to dissolve the diclofenac sodium. 10 mM propafenone stock solution and 10 mM diclofenac stock solution were prepared respectively. • IV, 10 µL of the propafenone stock solution and 10 mL of the diclofenac stock solution were each added with 990 µL of acetonitrile to prepare 100 µM propafenone working solution and 100 µM diclofenac working solutions.\n• a) 8 incubation plates were prepared, named T0, T5, T15, T30, T45, T60, Blank60 and NCF60, respectively. • b) 100 µL of microsome working solution was added to each of T0, T5, T15, T30, T45, T60, Blank60 and NCF60; 2 µL of the test (reference) working solution was added to each of T0, T5, T15, T30, T45, T60 and NCF60; and 2 µL of acetonitrile was added to Blank60. • c) T5, T15, T30, T45, T60, and Blank60 were pre-incubated in a 37°C water bath for 10 minutes. • d) 600 µL of the stop solution was added to the sample T0 to stop the reaction; and 98 µL of phosphate buffer solution (PBS) was added to NCF60, and NCF60 samples without the NADPH regeneration system were taken as negative control. • e) 98 µL of the working solution of the NADPH regeneration system was supplemented to the sample T0 that is stopped in the previous step; and after pre-incubation, 98 µL of the working solution of the NADPH regeneration system was added to each of T5, T15, T30, T45, T60, and Blank60 to initiate the reaction."}, "[4]": {"conditions": "mice, oral, administration dose 30 mg/kg, plasma"}}}
{"smiles": "COc1cnc(Cl)cc1-c1cc(C)ncc1C(=O)Nc1nc2cnc(-c3c(C)noc3C)cc2s1", "note": "[Example 155]", "values": [{"measurement": "IC50", "setting": "[1]", "result": 5.75, "unit": "nM"}, {"measurement": "IC50", "setting": "cells", "result": 19.2, "unit": "nM"}, {"measurement": "solubility", "setting": "Solubility assay", "result": 7.81, "unit": "µM"}, {"measurement": "Time to peak", "setting": "[2]; mice, oral, administration dose 30 mg/kg", "result": 1.0, "unit": "h"}, {"measurement": "Area under curve (0-t; hr * ng/mL)", "setting": "[2]; [4]", "result": 321.917, "unit": "µg·h/mL"}, {"measurement": "Peak concentration", "setting": "[2]; [4]", "result": 43083, "unit": "ng/mL"}, {"measurement": "MRT", "setting": "[2]; mouse, plasma, po, 30 mg/kg", "result": 4.56, "unit": "h"}, {"measurement": "half-life", "setting": "[2]; mouse, plasma, po, 30 mg/kg", "result": 136, "unit": "min"}, {"measurement": "half-life at 1 µM", "setting": "[3]", "result": 693, "unit": "min"}]}
